Experimental data taken from patent publication US10988766B2, “Compositions and methods used in diagnosing and treating colorectal cancer” (Oregon Health & Science University, priority 2017, dated 2021).

Assays:
Assay type in all cases: cell-based, human
[1] = system: HCT-116 cells reverse transfected with anti-miR-451a; assay: Chemosensitivity model: cell proliferation (CellTiter-Glo) with SHP2 and RAF inhibitors; conditions: 3.5 uM SHP2-inhibitor, 20 uM RAF-inhibitor, alone or combined; treated 24 hours post transfection
Experimental: HCT-116 cells (American Type Culture Collection) were cultured in McCoy's media supplemented with 10% fetal bovine serum (FBS) and antibiotics. Cells were tested and found negative for mycoplasma contamination before use in the assays described. Cells were reverse transfected with miR-451a-5p mimics or inhibitors with their respective controls (purchased from Life Technologies), using Lipofectamine® RNAiMAX (Invitrogen) per manufacturer's instructions. We report highly efficient transfection (>90%) of mimics and inhibitors in cell culture, as measured by fluorescent miR control. Cells were irradiated in a Shepherd^137 cesium irradiator at a rate of 1.34 cGy min. HCT-116 cells were initially transfected in a six-well plate, then transferred to a 96-well plate 16 hours post-transfection (2000 cells/well). In the chemosensitivity model, HCT-116 cells were treated with SHP2 inhibitor SHP099, 6-([…]-4-methyl-1-piperidinyl)-3-(2,3-dichlorophenyl)-2-pyrazinamine (Cayman Chemical, cat#20000) (3.5 μM), and RAF inhibitor (selective paradox breaker; SelleckChem, PLX7904, N′-[3-[[5-(2-cyclopropyl-5-pyrimidinyl)-1H-pyrrolo[2,3-b]pyridin-3-yl]carbonyl]-2,4-difluorophenyl]-N-ethyl-N-methyl-sulfamide, cat#57964) (20 μM) at 24 hours post transfection. Cell proliferation was analyzed at 48 hours post irradiation, using CellTiter-Glo®, per the manufacturer's instructions.

[2] = system: CAB39, EMSY, EREG, and MEX3C mRNAs; assay: miR-TRAP / RISC Trap assay; conditions: HCT116 co-transfected with mutant RISC complex plasmid and miR-451a mimic or control mimic
From the text: Fold enrichment over pre-IP mRNAs is depicted. Results are representative of two independent experiments.
HCT116 cells were co-transfected with a plasmid coding for a flag-tagged dominant negative […] mutant (Clontech kit #632016) along with a control mimic or miR-451a-5p mimic according to manufacturer instructions. Twenty-four hours later the RNA protein complexes were crosslinked and the RISC complex was immunoprecipitated using an anti-FLAG antibody and RNA was isolated for quantitative real-time PCR of target genes. The fold enrichment was calculated using pre and post IP controls as well as normalization to the control mimic pull-downs.

HCT-116 cells [3] = assay: Tumorsphere (3D culture) proliferation assay after transfection and radiation; conditions: miR-451a mimic vs control mimic, 48 hours after radiation
Experimental: (§1) FIG. 2B is a graph showing results where HCT116 were transfected with a miR-451a mimic or a control mimic. Proliferation was analyzed 48 hours after radiation in 3D cultures with the indicated doses. Bars depict mean±s.e.m. of triplicate wells. ** indicates P<0.01 on a two-tailed Student's T-test.
as §1, with “3B” for “2B”, “inhibitor (anti-miR-451a)” for “mimic”, “anti-miR.” for “mimic.”, “culture” for “cultures”
(§2) HCT-116 cells were transfected in a 6 well plate with miR-451a-5p mimic or inhibitor, and the corresponding controls from Life Technologies as previously described. Cells were transferred to a 96 well plate 16 hours post-transfection (1000 cells/well). At 24 hours post-transfection the HCT-116 cells were irradiated with 0, 2, or 5 Gy. Cell Titer-Glo and Caspase 3/7 Glo were analyzed at 48 hours and 96 hours post-irradiation, according to manufacturer's instructions.

[4] = system: CAB39, EMSY, EREG, and MEX3C mRNA in HCT-116 cells; assay: qRT-PCR of the miR-451 targets after transfection; conditions: 24 h after transfection
Experimental: FIG. 4C is a plot of the results of qRT-PCR of the miR-451 targets in HCT-116 cells at 24 h after transfection.
This list was narrowed by filtering genes with a known role in human colorectal cancer and/or cellular response to ionizing radiation. […] A miR-Trap assay was used to pull down mRNAs enriched at the RNA induced silencing complex in cells transfected with miR-451a.

HCT-116 cells [5] = assay: Colony formation assay (surviving fraction); conditions: miR-451a mimic vs control mimic, 0, 2 or 5 Gy, colonies counted 12-14 days after plating
Experimental: Cells were transfected with miR-451a-5p mimic or control mimic for 16 hours. Then cells were plated (100 or 200 cells for 0Gy, 200 or 400 cells/well for 2GY and 400 or 800 cells per well for 5Gy) in triplicate in a 6-well plate. Cells were irradiated 4 hours after plating, 0Gy, 2Gy or 5Gy. Two weeks after plating, cells were fixed and stained with crystal violet and colonies were counted. Surviving fraction was calculated based on the colony numbers normalized to the plating efficiency.

HCT-116 cells [6] = assay: Proliferation in 2D culture (Cell Titer-Glo) after transfection and radiation
From the text: HCT-116 cells were reverse transfected with miR-451a-5p mimics, inhibitors and their respective controls were purchased from Life Technologies using Lipofectamine RNAiMAX (Invitrogen) according to manufacturer's instructions.
Cells or mice were irradiated on a Shepherd^137 cesium irradiator at a rate of […] 1.34 cGy min. In tumour-targeted radiation experiments, mice were restrained in a lead shield (Brain Tree Scientific) to minimize exposure to the non-tumour areas.
as §2

HCT116 = assay: Proliferation after radiation and 5-FU treatment; conditions: miR-451a mimic vs control mimic, radiation and 5-FU (5 μM), 48 and 96 hours
Experimental: FIG. 6A is a graph of HCT116 transfected with a miR-451a mimic or a control mimic. Proliferation was analyzed 48 hours after radiation and 5-FU (5 μM) treatment. Mean of triplicate wells is plotted. * indicates P<0.01 on a two-tailed Student's T-test.
FIG. 6B is a graph of HCT116 transfected with a miR-451a mimic or a control mimic. Proliferation was analyzed 96 hours after radiation and 5-FU (5 μM) treatment. Mean of triplicate wells is plotted. * indicates P<0.01 on a two-tailed Student's T-test
as §2

Compound	cell proliferation [1]	enrichment of target mRNAs at the RNA induced silencing complex [2]	proliferation in a tumorsphere assay (HCT-116 cells [3])	target gene expression at the mRNA level [4]	surviving fraction colony formation (HCT-116 cells [5])	proliferation in a 2D culture (HCT-116 cells [6]; miR-451a mimic vs control mimic, 48 hours after radiation)	effect in combination with radiation (HCT-116 cells [6]; on the phenotypes (proliferation, tumorsphere, colony formation), especially at the 5 Gy dose)	responses to 5-FU (proliferation) (HCT116)
CCN(C)S(=O)(=O)Nc1ccc(F)c(C(=O)c2c[nH]c3ncc(-c4cnc(C5CC5)nc4)cc23)c1F [RAF-inhibitor, N′-[3-[[5-(2-cyclopropyl-5-pyrimidinyl)-1H-pyrrolo[2,3-b]pyridin-3-yl]carbonyl]-2,4-difluorophenyl]-N-ethyl-N-methyl-sulfamide]	significant decrease in cell proliferation	–	–	–	–	–	–	–
CC1(N)CCN(c2cnc(-c3cccc(Cl)c3Cl)c(N)n2)CC1 [SHP2-inhibitor, 6-(4-diamino-4-methyl-1-piperidinyl)-3-(2,3-dichlorophenyl)-2-pyrazinamine]	significant decrease in cell proliferation	–	–	–	–	–	–	–
miR-451a: miR-451a-5p mimic purchased from Life Technologies, transfected into HCT-116 cells; tumor suppressor miRNA (AAACCGUUACCAUUACUGAGUU; listed as RNA, chemistry not given here; listed as Homo sapiens)	–	enriched at the RISC	decreased proliferation	significant downregulation of all four target genes	decreased proliferation	decreased proliferation	slight additive effect with radiation	enhanced the responses to 5-FU
